According to PubChem BioAssay AID1963978 (Molecular Pharmacology Branch, DTP, NCI, 2024):

Tested on: 616215-338-R-J1-PDC spheroids with HUVEC/MSC, viability
Test: Anticancer human tumor 616215-338-R-J1-PDC patient-derived colon adenocarcinoma cell line growth inhibition [PI3K]
Details: for IC50: curve of first compound; for viability, T/C: stronger effect = lower value
Text: Combinatorial screen of targeted agents with the PI3K inhibitors inavolisib, alpelisib, duvelisib, and copanlisib in multi-cell type tumor spheroids
A high-throughput screen of multi-cell type tumor spheroids was designed to identify active combinations of targeted small molecules and PI3K pathway inhibitors. Complex spheroids include a stromal component modeled by human endothelial cells (HUVEC) and fibroblasts modeled by human mesenchymal stem cells (MSCs). The concentration ranges selected for each drug and investigational agent were based upon clinically achievable concentrations if the clinical Cmax of the agent was known.
Compounds. The drugs and investigational agents: inavolisib (NSC800729), alpelisib (NSC765974), duvelisib (NSC772469), copanlisib (NSC816437), ipatasertib (NSC767898), afuresertib (NSC778305), talazoparib (NSC767125), sapanisertib (NSC764658), selumetinib (NSC741078), tovorafenib (DAY101, NSC766906), vemurafenib (NSC761431), ravoxertinib (NSC781343), sotorasib (NSC818433), MRTX1133 (NSC 836407), abemaciclib (NSC 768073), palbociclib (NSC758247), venetoclax (NSC 766270), SY5609 (NSC837396), enzalutamide (NSC755605), and darolutamide (NSC825331), were obtained from the National Cancer Institute (NCI) Developmental Therapeutics Program Chemical Repository. The FDA-approved anticancer drug set is available from the NCI Developmental Therapeutics Program. […] The stock solutions were prepared in dimethyl sulfoxide (DMSO, Sigma-Aldrich, St. Louis, MO, cat. D2650) at 800-fold the tested concentration and stored at -70 degrees C prior to their use. All drugs and investigational agents were tested over a range starting from a high concentration at or near the clinical Cmax and decreasing in half-log increments. If the clinical Cmax for an agent had not been determined, the highest concentration tested was 10 microM.
Cell Culture. All cells were maintained in an incubator at 37 degrees C and 5% CO2 with 95% humidity. The PDC lines were cultured according to standard operating procedures established by the NCI PDMR (https://pdmr.cancer.gov/sops/default.htm). All PDCs were thawed and cultured in Matrigel-coated flasks prepared with a working solution of 1X Ham's F-12 nutrient mix, without supplementation (Invitrogen, Waltham, MA, cat. 11765054), 100 U/mL penicillin-streptomycin (Invitrogen, cat. 15140122), and 2.5% Matrigel (Corning Inc., Corning, NY, cat. 354248) for the first three passages. The 354836-022-R-J1-PDC, 475296-252-R-J1-PDC, and 997726-040-R-J2-PDC lines were cultured in 6A media, which includes advanced DMEM/F-12 (Thermo Fisher Scientific, cat. 12634028), 10 mM HEPES (Thermo Fisher Scientific, cat. 15630080), 1X GlutaMAX supplement (Thermo Fisher Scientific, cat. 35050061), 0.1 mg/mL primocin (InvivoGen, San Diego, CA, cat. ant-pm-2), 10% defined fetal bovine serum, heat inactivated (HyClone Laboratories Inc., Logan, UT, cat. SH30070.03HI), 50% L-WRN conditioned media (ATCC, cat. CRL-3276), 1.25 mM N-Acetyl-L-cysteine (Sigma-Aldrich, cat. A9165), 10 mM nicotinamide (Sigma-Aldrich, cat. N0636), 1X B-27 supplement (Thermo Fisher Scientific, cat. 17504044), 1X N-2 supplement (Thermo Fisher Scientific, cat. 17502048), and 10 microM Y-27632 dihydrochloride (Tocris Bioscience, Bristol, United Kingdom, cat. 1254). The 624824-186-R-J2-PDC line was cultured in 6C/Colon 1B media, which includes all 6A media components plus 50 ng/mL human EGF recombinant protein (Thermo Fisher Scientific, cat. PHG0311). […]

[1] = second compound 0.0316 µM, first compound 0.0316 µM
[2] = second compound 0.0316 µM, first compound 0.1 µM
[3] = second compound 0.0316 µM, first compound 0.316 µM
[4] = second compound 0.0316 µM, first compound 1 µM
[5] = second compound 0.0316 µM, first compound 3.16 µM
[6] = second compound 0.0316 µM, first compound 10 µM
[7] = second compound 0.1 µM, first compound 0.0316 µM
[8] = second compound 0.1 µM, first compound 0.1 µM
[9] = second compound 0.1 µM, first compound 0.316 µM
[10] = second compound 0.1 µM, first compound 1 µM
[11] = second compound 0.1 µM, first compound 3.16 µM
[12] = second compound 0.1 µM, first compound 10 µM
[13] = second compound 0.316 µM, first compound 0.0316 µM
[14] = second compound 0.316 µM, first compound 0.1 µM
[15] = second compound 0.316 µM, first compound 0.316 µM
[16] = second compound 0.316 µM, first compound 1 µM
[17] = second compound 0.316 µM, first compound 3.16 µM
[18] = second compound 0.316 µM, first compound 10 µM
[19] = second compound 1 µM, first compound 0.0316 µM
[20] = second compound 1 µM, first compound 0.1 µM
[21] = second compound 1 µM, first compound 0.316 µM
[22] = second compound 1 µM, first compound 1 µM
[23] = second compound 1 µM, first compound 3.16 µM
[24] = second compound 1 µM, first compound 10 µM
[25] = second compound 3.16 µM, first compound 0.0316 µM
[26] = second compound 3.16 µM, first compound 0.1 µM
[27] = second compound 3.16 µM, first compound 0.316 µM
[28] = second compound 3.16 µM, first compound 1 µM
[29] = second compound 3.16 µM, first compound 3.16 µM
[30] = second compound 3.16 µM, first compound 10 µM
[31] = second compound 10 µM, first compound 0.0316 µM
[32] = second compound 10 µM, first compound 0.1 µM
[33] = second compound 10 µM, first compound 0.316 µM
[34] = second compound 10 µM, first compound 1 µM
[35] = second compound 10 µM, first compound 3.16 µM
[36] = second compound 10 µM, first compound 10 µM
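Further: spheroids exposed to agents for seven days before the viability read.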

SMILES: CC(Cn1ccc(-c2ccc(C#N)c(Cl)c2)n1)NC(=O)c1cc(C(C)O)[nH]n1 (stereo not given) + Cc1nc(NC(=O)N2CCCC2C(N)=O)sc1-c1ccnc(C(C)(C)C(F)(F)F)c1
- IC50 (second compound 0.0316 µM): > 10 µM
- IC50 (second compound 0.1 µM): > 10 µM
- IC50 (second compound 0.316 µM): > 10 µM
- IC50 (second compound 1 µM): > 10 µM
- IC50 (second compound 3.16 µM): > 10 µM
- IC50 (second compound 10 µM): > 10 µM
- viability, T/C [1]: 105%
- viability, T/C [2]: 101%
- viability, T/C [3]: 114%
- viability, T/C [4]: 97.5%
- viability, T/C [5]: 102%
- viability, T/C [6]: 103%
- viability, T/C [7]: 94.3%
- viability, T/C [8]: 89.8%
- viability, T/C [9]: 98.1%
- viability, T/C [10]: 95.7%
- viability, T/C [11]: 101%
- viability, T/C [12]: 97.4%
- viability, T/C [13]: 98.6%
- viability, T/C [14]: 104%
- viability, T/C [15]: 104%
- viability, T/C [16]: 99.7%
- viability, T/C [17]: 108%
- viability, T/C [18]: 95.5%
- viability, T/C [19]: 111%
- viability, T/C [20]: 102%
- viability, T/C [21]: 95.4%
- viability, T/C [22]: 102%
- viability, T/C [23]: 100%
- viability, T/C [24]: 98.5%
- viability, T/C [25]: 101%
- viability, T/C [26]: 99.5%
- viability, T/C [27]: 96.7%
- viability, T/C [28]: 103%
- viability, T/C [29]: 96.1%
- viability, T/C [30]: 108%
- viability, T/C [31]: 105%
- viability, T/C [32]: 100%
- viability, T/C [33]: 90.8%
- viability, T/C [34]: 99.3%
- viability, T/C [35]: 95.9%
- viability, T/C [36]: 84.1%

SMILES: CCN1CCN(Cc2ccc(Nc3ncc(F)c(-c4cc(F)c5nc(C)n(C(C)C)c5c4)n3)nc2)CC1 + Cc1nc(NC(=O)N2CCCC2C(N)=O)sc1-c1ccnc(C(C)(C)C(F)(F)F)c1
- IC50 (second compound 0.0316 µM): > 1 µM
- IC50 (second compound 0.1 µM): > 1 µM
- IC50 (second compound 0.316 µM): > 1 µM
- IC50 (second compound 1 µM): > 1 µM
- IC50 (second compound 3.16 µM): > 1 µM
- IC50 (second compound 10 µM): > 1 µM
- viability, T/C (second compound 0.0316 µM, first compound 0.00316 µM): 94%
- viability, T/C (second compound 0.0316 µM, first compound 0.01 µM): 90.8%
- viability, T/C [1]: 98.5%
- viability, T/C [2]: 101%
- viability, T/C [3]: 110%
- viability, T/C [4]: 134%
- viability, T/C (second compound 0.1 µM, first compound 0.00316 µM): 107%
- viability, T/C (second compound 0.1 µM, first compound 0.01 µM): 120%
- viability, T/C [7]: 96.9%
- viability, T/C [8]: 105%
- viability, T/C [9]: 114%
- viability, T/C [10]: 113%
- viability, T/C (second compound 0.316 µM, first compound 0.00316 µM): 113%
- viability, T/C (second compound 0.316 µM, first compound 0.01 µM): 104%
- viability, T/C [13]: 111%
- viability, T/C [14]: 115%
- viability, T/C [15]: 131%
- viability, T/C [16]: 110%
- viability, T/C (second compound 1 µM, first compound 0.00316 µM): 92.5%
- viability, T/C (second compound 1 µM, first compound 0.01 µM): 99%
- viability, T/C [19]: 101%
- viability, T/C [20]: 108%
- viability, T/C [21]: 120%
- viability, T/C [22]: 83.9%
- viability, T/C (second compound 3.16 µM, first compound 0.00316 µM): 96.7%
- viability, T/C (second compound 3.16 µM, first compound 0.01 µM): 105%
- viability, T/C [25]: 106%
- viability, T/C [26]: 103%
- viability, T/C [27]: 91.9%
- viability, T/C [28]: 84.1%
- viability, T/C (second compound 10 µM, first compound 0.00316 µM): 91.3%
- viability, T/C (second compound 10 µM, first compound 0.01 µM): 82.7%
- viability, T/C [31]: 92.3%
- viability, T/C [32]: 74.6%
- viability, T/C [33]: 68.9%
- viability, T/C [34]: 52.1%

SMILES: CC1(C)CCC(CN2CCN(c3ccc(C(=O)NS(=O)(=O)c4ccc(NCC5CCOCC5)c([N+](=O)[O-])c4)c(Oc4cnc5[nH]ccc5c4)c3)CC2)=C(c2ccc(Cl)cc2)C1
- viability, T/C (compound 0.1 µM): 99.5% [middle of 4 runs]
- viability, T/C (compound 0.316 µM): 96.5% [middle of 4 runs]
- viability, T/C (compound 1 µM): 96.4% [middle of 4 runs]
- viability, T/C (compound 3.16 µM): 77.8% [middle of 4 runs]

SMILES: CC1(C)CCC(CN2CCN(c3ccc(C(=O)NS(=O)(=O)c4ccc(NCC5CCOCC5)c([N+](=O)[O-])c4)c(Oc4cnc5[nH]ccc5c4)c3)CC2)=C(c2ccc(Cl)cc2)C1 + CC(Nc1ncnc2nc[nH]c12)c1cc2cccc(Cl)c2c(=O)n1-c1ccccc1
- IC50 (second compound 0.0316 µM): 4.56 µM
- IC50 (second compound 0.1 µM): 4.67 µM
- IC50 (second compound 0.316 µM): 4.79 µM
- IC50 (second compound 1 µM): 4.99 µM
- IC50 (second compound 3.16 µM): 5.14 µM
- IC50 (second compound 10 µM): 5.53 µM
- viability, T/C [1]: 98.3%
- viability, T/C [2]: 105%
- viability, T/C [3]: 110%
- viability, T/C [4]: 104%
- viability, T/C [5]: 71.3%
- viability, T/C [6]: 4.22%
- viability, T/C [7]: 109%
- viability, T/C [8]: 103%
- viability, T/C [9]: 101%
- viability, T/C [10]: 96.7%
- viability, T/C [11]: 74.2%
- viability, T/C [12]: 3.61%
- viability, T/C [13]: 107%
- viability, T/C [14]: 103%
- viability, T/C [15]: 107%
- viability, T/C [16]: 103%
- viability, T/C [17]: 76.6%
- viability, T/C [18]: 2.7%
- viability, T/C [19]: 101%
- viability, T/C [20]: 107%
- viability, T/C [21]: 108%
- viability, T/C [22]: 110%
- viability, T/C [23]: 80.8%
- viability, T/C [24]: 2.87%
- viability, T/C [25]: 108%
- viability, T/C [26]: 111%
- viability, T/C [27]: 99.2%
- viability, T/C [28]: 123%
- viability, T/C [29]: 85%
- viability, T/C [30]: 2.42%
- viability, T/C [31]: 118%
- viability, T/C [32]: 105%
- viability, T/C [33]: 105%
- viability, T/C [34]: 105%
- viability, T/C [35]: 94.9%
- viability, T/C [36]: 2.49%
